In patent USRE49825E1, “Piperidinyl nociceptin receptor compounds” (Astraea Therapeutics, LLC, priority 2015, dated 2024):
Read-outs that look alike come from different tables or passages of the source.

Tests used:
mu opioid receptor = mu opioid receptor (Homo sapiens, UniProt P35372); test: Radioligand binding assay, [3H]DAMGO, membranes of CHO cells transfected with human mu opioid receptor; conditions: CHO cell membranes, read-out: Receptor Binding Ki (nM) μ
kappa opioid receptor = kappa opioid receptor (Homo sapiens, UniProt P41145); test: Radioligand binding assay, [3H]U69593, membranes of CHO cells transfected with human kappa opioid receptor; conditions: CHO cell membranes, read-out: Receptor Binding Ki (nM) κ
Chain of kappa opioid receptor (P41145 whole entry): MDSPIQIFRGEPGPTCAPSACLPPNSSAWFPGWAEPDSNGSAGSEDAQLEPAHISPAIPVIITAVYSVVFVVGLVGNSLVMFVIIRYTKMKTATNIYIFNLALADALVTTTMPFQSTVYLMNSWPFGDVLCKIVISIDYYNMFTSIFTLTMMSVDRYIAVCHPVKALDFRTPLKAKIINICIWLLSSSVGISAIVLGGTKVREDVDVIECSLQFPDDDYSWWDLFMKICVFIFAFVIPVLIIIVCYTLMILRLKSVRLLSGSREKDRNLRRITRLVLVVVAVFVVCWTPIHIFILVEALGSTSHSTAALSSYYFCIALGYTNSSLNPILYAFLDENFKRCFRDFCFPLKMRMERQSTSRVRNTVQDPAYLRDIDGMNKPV

Chain of mu opioid receptor (P35372 whole entry): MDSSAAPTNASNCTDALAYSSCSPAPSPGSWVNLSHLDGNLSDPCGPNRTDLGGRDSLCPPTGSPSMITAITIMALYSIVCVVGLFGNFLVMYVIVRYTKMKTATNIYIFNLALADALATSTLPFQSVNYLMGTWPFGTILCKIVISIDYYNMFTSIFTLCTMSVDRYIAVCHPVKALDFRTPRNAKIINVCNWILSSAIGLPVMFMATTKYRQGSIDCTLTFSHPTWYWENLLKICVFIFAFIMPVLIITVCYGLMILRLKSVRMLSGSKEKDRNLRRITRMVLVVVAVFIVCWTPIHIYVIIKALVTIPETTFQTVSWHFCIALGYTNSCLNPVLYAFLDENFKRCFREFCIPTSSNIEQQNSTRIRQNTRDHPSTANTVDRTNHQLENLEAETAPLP

`CC(C)[C@H]1CC[C@@H](N2CCC(n3ccc4ccccc43)CC2)CC1` [Compound 61, syn-1-(1-(4-isopropylcyclohexyl)piperidin-4-yl)-1H-indole] showed a Ki (mu opioid receptor; Compounds of Formula (II)) of 150 to 5000 nM and a Ki (kappa opioid receptor; Compounds of Formula (II)) of 150 to 5000 nM.

`CC(C)[C@H]1CC[C@@H](N2CCC(n3cc(CN4CC[C@@H](O)C4)c4ccccc43)CC2)CC1` [Compound 66, (R)-1-((1-(1-(cis-4-isopropylcyclohexyl)piperidin-4-yl)-1H-indol-3-yl)methyl)pyrrolin-3-ol] gave a Ki (mu opioid receptor; Compounds of Formula (II)) of 150 to 5000 nM and a Ki (kappa opioid receptor; Compounds of Formula (II)) of over 5000 nM.

Work on `CC(C)[C@H]1CC[C@@H](N2CCC(n3cc(CN4CC(O)C4)c4ccccc43)CC2)CC1` [Compound 67, 1-((1-(1-(cis-4-isopropylcyclohexyl)piperidin-4-yl)-1H-indol-3-yl)methyl)azetidin-3-ol] yielded a Ki (mu opioid receptor; Compounds of Formula (II)) of over 5000 nM and a Ki (kappa opioid receptor; Compounds of Formula (II)) of over 5000 nM.

For `CC(C)[C@H]1CC[C@@H](N2CCC(n3cc(CN4CCC(O)CC4)c4ccccc43)CC2)CC1` [Compound 68], the Ki (mu opioid receptor; Compounds of Formula (II)) was over 5000 nM and the Ki (kappa opioid receptor; Compounds of Formula (II)) was 150 to 5000 nM.

`CC(C)[C@H]1CC[C@@H](N2CCC(n3cc(CN4CCC(N)CC4)c4ccccc43)CC2)CC1` [Compound 69, 1-((1-(1-(cis-4-isopropylcyclohexyl)piperidin-4-yl)-1H-indol-3-yl)methyl)piperidin-4-amine] gave a Ki (mu opioid receptor; Compounds of Formula (II)) of 150 to 5000 nM and a Ki (kappa opioid receptor; Compounds of Formula (II)) of 150 to 5000 nM.

Work on `CC(C)[C@H]1CC[C@@H](N2CCC(n3cc(CNCCO)c4ccccc43)CC2)CC1` [Compound 70] yielded a Ki (mu opioid receptor; Compounds of Formula (II)) of 150 to 5000 nM and a Ki (kappa opioid receptor; Compounds of Formula (II)) of 150 to 5000 nM.

In the case of `CCNCC(=O)NCc1cn(C2CCN([C@H]3CC[C@@H](C(C)C)CC3)CC2)c2ccccc12` [Compound 76], the Ki (mu opioid receptor; Compounds of Formula (II)) is reported as 150 to 5000 nM and the Ki (kappa opioid receptor; Compounds of Formula (II)) is reported as 150 to 5000 nM.

`CC(C)[C@H]1CC[C@@H](N2CCC(n3cc(CNC(=O)C(N)CCCNC(=N)N)c4ccccc43)CC2)CC1` (stereo partly shown) [Compound 80] showed a Ki (mu opioid receptor; Compounds of Formula (II)) of 150 to 5000 nM and a Ki (kappa opioid receptor; Compounds of Formula (II)) of 150 to 5000 nM.

Work on `CC(C)[C@H]1CC[C@@H](N2CCC(n3cc(CN(C)C)c4ccccc43)CC2)CC1` [Compound 84] yielded a Ki (mu opioid receptor; Compounds of Formula (II)) of 150 to 5000 nM.

Compound `CC(C)[C@H]1CC[C@@H](N2CCC(n3cc(CCN)c4ccccc43)CC2)CC1` [Compound 86, 2-(1-(1-(cis-4-isopropylcyclohexyl)piperidin-4-yl)-1H-indol-3-yl)ethan-1-amine] has a Ki (mu opioid receptor; Compounds of Formula (II)) of 150 to 5000 nM and a Ki (kappa opioid receptor; Compounds of Formula (II)) of 150 to 5000 nM.

In the case of `CCOC(=O)NCCc1cn(C2CCN([C@H]3CC[C@@H](C(C)C)CC3)CC2)c2ccccc12` [Compound 94], the Ki (mu opioid receptor; Compounds of Formula (II)) is reported as 150 to 5000 nM and the Ki (kappa opioid receptor; Compounds of Formula (II)) is reported as over 5000 nM.

For `CC(C)[C@H]1CC[C@@H](N2CCC(n3cc(CCCNC(N)=S)c4ccccc43)CC2)CC1` [Compound 96], the Ki (mu opioid receptor; Compounds of Formula (II)) was 150 to 5000 nM and the Ki (kappa opioid receptor; Compounds of Formula (II)) was 150 to 5000 nM.

`CC(C)[C@H]1CC[C@@H](N2CCC3(CC2)C(=O)N(CC(N)=O)Cc2cc(-c4ccccc4)ccc23)CC1` [Compound 345, 2-(1′-(cis-4-isopropyl-cyclohexyl)-3-oxo-7-phenyl-1H-spiro [isoquinoline-4,4′-piperidin]-2(3H)-yl) acetamide] was tested, and the Ki (mu opioid receptor; Compounds of Formula (IV)) was 150 to 5000 nM and the Ki (kappa opioid receptor; Compounds of Formula (IV)) was 150 to 5000 nM.
